Here are results for 25 molecules from US11597708B2, “Inhibitors of heat shock factors and uses thereof” (HSF Pharmaceuticals SA, priority 2016, dated 2023).

Structures can show the parent of a compound that is named as a salt. Where two headings read alike, the source gives them in different places. Bounds are passed on as bounds.

The target in this assay is T1, HSF1 (Homo sapiens, UniProt Q00613).
T1 construct: functionally linked to an hsp70b promoter and therefore controlled by endogenous HSF1; endogenous in cells; host or cells: HeLa cells / HeLa-derived cell line Z74
T1 sequence (Q00613 1-529): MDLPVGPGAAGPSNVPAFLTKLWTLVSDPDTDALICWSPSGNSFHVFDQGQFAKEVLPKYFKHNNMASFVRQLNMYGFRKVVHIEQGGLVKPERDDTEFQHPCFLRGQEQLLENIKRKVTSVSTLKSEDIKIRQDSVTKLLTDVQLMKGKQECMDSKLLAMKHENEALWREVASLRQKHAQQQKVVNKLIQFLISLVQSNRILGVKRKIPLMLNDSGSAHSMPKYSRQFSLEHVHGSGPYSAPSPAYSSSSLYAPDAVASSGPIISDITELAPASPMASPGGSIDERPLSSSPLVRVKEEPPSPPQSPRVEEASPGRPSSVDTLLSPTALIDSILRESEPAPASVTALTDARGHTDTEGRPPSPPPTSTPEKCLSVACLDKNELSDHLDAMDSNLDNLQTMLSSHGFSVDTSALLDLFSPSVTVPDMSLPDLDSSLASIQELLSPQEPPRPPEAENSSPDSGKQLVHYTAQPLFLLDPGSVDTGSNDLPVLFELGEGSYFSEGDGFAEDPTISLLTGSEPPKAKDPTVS
Nature of the assay: Z74 cell-based reporter assay: heat-induced RLuc expression controlled by endogenous HSF1. Particulars: for inhibition at 12.5 µM: read-out: Inhibition of HSF1 activity at 12.5 μM IHSF [RLuc] (%); for inhibition at 25 µM: read-out: Inhibition of HSF1 activity at 25 μM IHSF [RLuc] (%); for IC50: inhibition of HSF1 activity [RLuc]. The source says: For screening this sublibrary, a cell-based assay was developed. We opted for a cell-based assay, because a cell-free assay would have had to be a DNA-binding assay. Such an assay would have limited discovery to molecules capable of interfering with the DNA-binding function of HSF1. This was thought to be too narrow a focus, considering that three of the four cavities identified in the HSF1 DNA-binding domain are not near the DNA interaction region. A straightforward cell-based assay, in which a HSF1-responsive gene would be assayed, was considered likely to be over-inclusive. Compounds would be scored as hits that inhibit any factor that is involved in HSF1 activation or prevents HSF1 deactivation. These factors include protein kinases, activators of protein phosphatases, factors affecting HSF1 mRNA stability, HSP90, HDAC6, etc. For developing a more discriminating cell-based assay, advantage was taken of the modular nature of HSF1. […] The cell-based assay developed (see below for the particular format employed) compared transactivation by wild type HSF1 and chimeric HSF1 in cells exposed to an HSF1-activating heat treatment in the presence of a sublibrary compound. A compound was scored as a hit, if it inhibited the activity of wild type HSF1 but not of chimeric HSF1.
The cell-based assay made use of HeLa-derived cell line Z74 that stably contains a gene for chimeric transcription factor LexA-(human) HSF1 under the control of a CMV early promoter, a firefly luciferase (flue) gene driven by a promoter responsive to the latter chimeric transcription factor and a Renilla luciferase (rluc) gene functionally linked to an hsp70b promoter and therefore controlled by endogenous HSF1 (FIG. 1A). As is shown in FIGS. 1B & C, the reporter genes responded similarly to heat dose, i.e., their activation depended on both duration of heat exposure and temperature of the exposure. […] Depletion of HSF1 (and LexA-HSF1) by siRNA supported the notion that this stress regulation is mediated by HSF1 (and LexA-HSF1). Therefore, the Z74 line was well suited for use in a screening assay aimed at discovering molecules that inhibit heat-induced HSF1 activity through interaction with the transcription factor's DNA-binding domain.
The compounds of the afore-mentioned biased sublibrary were screened in cell line Z74 at 12.5 and 25 μM concentrations. Typically, Z74 cultures in 96-well plates were exposed to compound or vehicle for 2 h, heat-treated at 43.0° C. for 30 min, and incubated further for 6 h at 37° C. to allow for accumulation of the luciferases. RLuc and FLuc activities were determined, typically using the Dual-Glo® Luciferase Assay System (Promega Corp., Madison, Wis.), and reading luciferase light counts in a Wallac Microbeta Trilux-1450 Luminometer (PerkinElmer, Waltham, Mass.). IHSF 001 was one of two library compounds that inhibited RLuc expression but not FLuc expression in heat-treated Z74 cells (Table 1; FIG. 2A). Therefore, IHSF 001 is an inhibitor of HSF1 function that specifically acts through the HSF1 DNA-binding domain. […] A corroborating experiment utilized a cell line containing an hsp70b promoter-driven fluc gene. […] IHSF 001 is (E)-ethyl 4-oxo-4-(thiazol-2-ylamino)but-2-enoate. The compound can be obtained from commercial sources (e.g., AKE-PB-90340538, Akos).

Where [1] appears, read: Z74 cells, 12.5 μM IHSF, negative values marked *: compound enhanced rLuc activity.
[2] abbreviates: Z74 cells, 25 μM IHSF, 2 h exposure, 43° C. 30 min, 6 h at 37° C.

With `CCOC(=O)/C=C/C(=O)Nc1cnc(-c2ccccc2)s1` [IHSF 045, (E)-3-(2-Phenyl-thiazol-5-ylcarbamoyl)-acrylic acid ethyl ester], under setting [1], the inhibition (in general, the relative decrease from the control value, in per cent) at 12.5 µM was found to be 34%. Further, the inhibition at 25 µM under setting [2] amounted to 53%.

With `CCOC(=O)/C=C/C(=O)N(C)c1nccs1` [IHSF 070, (E)-3-(Methyl-thiazol-2-yl-carbamoyl)-acrylic acid ethyl ester], for the setting “Z74 cells”, the IC50 (in general, the concentration that inhibits the measured activity by half) was 5.7 µM. For the same molecule, the inhibition at 12.5 µM under setting [1] is 72%. Moreover, the inhibition at 25 µM under setting [2] is 90%.

In the case of `CCOC(=O)/C=C/C(=O)Nc1cc(-c2ccccc2)cs1` [IHSF 043, (E)-3-(4-Phenyl-thiophen-2-ylcarbamoyl)-acrylic acid ethyl ester], the inhibition at 12.5 µM under setting [1] is 32%. Further, the inhibition at 25 µM under setting [2] worked out at 5%.

`CCOC(=O)/C=C/C(=O)Nc1ncc(C)s1` [IHSF 013, (E)-3-(5-Methyl-thiazol-2-ylcarbamoyl)-acrylic acid ethyl ester]: the inhibition at 12.5 µM under setting [1] was found to be 34%. The inhibition at 25 µM under setting [2] is 50%.

Consider `CCCC(=O)/C=C/C(=O)Nc1nccs1` [IHSF 095, (E)-4-Oxo-N-(thiazol-2-yl)hept-2-enamide], for which, under setting [1], the inhibition at 12.5 µM is 6%. For the same molecule, the inhibition at 25 µM under setting [2] is 44%.

In turn, `O=C(/C=C/C1=NCCCO1)Nc1nccs1` [IHSF 090, (E)-3-(5,6-Dihydro-4H-[1,3]oxazin-2-yl)-N-thiazol-2-yl-acrylamide] had a concentration for half-maximal inhibition (IC50) (Z74 cells) of 5.4 µM. Besides, under setting [1], the inhibition at 12.5 µM is 78%. Moreover, the inhibition at 25 µM under setting [2] came out at 98%.

Take `O=C(/C=C/c1nnco1)Nc1nccs1` [IHSF 091, (E)-3-(1,3,4-Oxadiazol-2-yl)-N-(thiazol-2-yl)acrylamide]: the IC50 (Z74 cells) is above 25 µM. The inhibition at 12.5 µM under setting [1] turned out to be 22%. Besides, the inhibition at 25 µM under setting [2] is 27%.

In the case of `CCOC(=O)/C=C/C(=O)Nc1cc(C)no1` [IHSF 046, (E)-3-(3-Methyl-isoxazol-5-ylcarbamoyl)-acrylic acid ethyl ester], under setting [1], the inhibition at 12.5 µM was found to be 33%. Under setting [2], the inhibition at 25 µM came to 70%.

Regarding `CCOC(=O)/C=C/C(=O)Nc1ccnc(C)c1` [IHSF 048, (E)-3-(2-Methyl-pyridin-4-ylcarbamoyl)-acrylic acid ethyl ester], the inhibition at 12.5 µM under setting [1] amounted to 37%. Under setting [2], the inhibition at 25 µM worked out at 67%.

As for `CC(C)NC(=O)/C=C/C(=O)Nc1nccs1` [IHSF 031, (E)-But-2-enedioic acid isopropylamide thiazol-2-ylamide], the inhibition at 12.5 µM under setting [1] is 15%. Under setting [2], the inhibition at 25 µM stood at 24%.

As for `CCOC(=O)/C=C/C(=O)Nc1ccnc(-c2ccncc2)c1` [IHSF 076, (E)-3-([2,4′]Bipyridinyl-4-ylcarbamoyl)-acrylic acid ethyl ester], the inhibition at 12.5 µM under setting [1] was 56%. Moreover, under setting [2], the inhibition at 25 µM amounted to 66%.

For `CCOC(=O)/C=C/C(=O)Nc1nc(CC)c(-c2ccccc2)s1` [IHSF 107, (E)-3-(4-Ethyl-5-phenyl-thiazol-2-ylcarbamoyl)-acrylic acid ethyl ester], the IC50 (Z74 cells) was 10.6 µM. Further, the inhibition at 12.5 µM under setting [1] was 62%. The inhibition at 25 µM under setting [2] came out at 92%.

For the molecule `CCOC(=O)/C=C/C(=O)Nc1ccncc1C` [IHSF 083, (E)-3-(3-Methyl-pyridin-4-ylcarbamoyl)-acrylic acid ethyl ester], under setting [1], the inhibition at 12.5 µM was found to be 24%. Moreover, the inhibition at 25 µM under setting [2] was found to be 34%.

Take `CC(C)OC(=O)/C=C/C(=O)Nc1nccs1` [IHSF 028, (E)-3-(Thiazol-2-ylcarbamoyl)-acrylic acid isopropyl ester]: the inhibition at 12.5 µM under setting [1] turned out to be 13%. The inhibition at 25 µM under setting [2] worked out at 41%.

For `CCOC(=O)/C=C/C(=O)Nc1ccnc(N2CCN(C)CC2)c1` [IHSF 078, (E)-3-[2-(4-Methyl-piperazin-1-yl)-pyridin-4-ylcarbamoyl]-acrylic acid ethyl ester formic acid salt], the inhibition at 12.5 µM was determined as 32% and the inhibition at 25 µM is 54%.

The molecule `CCOC(=O)/C=C/C(=O)Nc1nc(-c2ccccn2)cs1` [IHSF 054, (E)-3-(4-Pyridin-2-yl-thiazol-2-ylcarbamoyl)-acrylic acid ethyl ester] gave an IC50 (Z74 cells) of 20.2 µM. For the same molecule, the inhibition at 12.5 µM under setting [1] stood at 22%. In addition, the inhibition at 25 µM under setting [2] was 69%.

Consider `CCOC(=O)/C=C/C(=O)Nc1ccnc(-c2ccccc2C)c1` [IHSF 079, (E)-3-(2-o-Tolyl-pyridin-4-ylcarbamoyl)-acrylic acid ethyl ester], for which the inhibition at 12.5 µM under setting [1] is 42%. Besides, under setting [2], the inhibition at 25 µM was 79%.

As for `CCNC(=O)/C=C/C(=O)Nc1nccs1` [IHSF 030, (E)-But-2-enedioic acid ethylamide thiazol-2-ylamide], the inhibition at 12.5 µM under setting [1] is 5%. Also, under setting [2], the inhibition at 25 µM turned out to be 18%.

For `CCOC(=O)/C=C/C(=O)Nc1ncco1` [IHSF 015, (E)-3-(Oxazol-2-ylcarbamoyl)-acrylic acid ethyl ester], under setting [1], the inhibition at 12.5 µM is 0%. The inhibition at 25 µM under setting [2] worked out at 20%.

As for `CCOC(=O)/C=C/C(=O)Nc1ccnc(-c2cccc(C)c2)c1` [IHSF 080, (E)-3-(2-m-Tolyl-pyridin-4-ylcarbamoyl)-acrylic acid ethyl ester], the inhibition at 12.5 µM under setting [1] is 55%. Moreover, the inhibition at 25 µM under setting [2] came out at 71%.

Consider `CCOC(=O)/C=C/C(=O)Nc1nc(C(=O)OC)c(-c2ccccc2)s1` [IHSF 105, 2-((E)-3 -Ethoxycarbonyl-acryloylamino)-5-phenyl-thiazole-4-carboxylic acid methyl ester], for which the IC50 (Z74 cells) amounted to 10.8 µM. Besides, the inhibition at 12.5 µM under setting [1] was found to be 69%. Besides, the inhibition at 25 µM under setting [2] stood at 96%.

`CCOC(=O)/C=C/C(=O)Nc1ccon1` [IHSF 017, (E)-3-(Isoxazol-3-ylcarbamoyl)-acrylic acid ethyl ester]: under setting [1], the inhibition at 12.5 µM is 32%. Further, under setting [2], the inhibition at 25 µM is 37%.

Regarding `CCOC(=O)/C=C/C(=O)Nc1cc(C)nc(C)c1` [IHSF 082, (E)-3-(2,6-Dimethyl-pyridin-4-ylcarbamoyl)-acrylic acid ethyl ester], the inhibition at 12.5 µM under setting [1] turned out to be 58%. Further, under setting [2], the inhibition at 25 µM came out at 91%.

With `CCN(CC)C(=O)/C=C/C(=O)Nc1nc(C)cs1` [IHSF 060, (E)-But-2-enedioic acid diethyl-amide (4-methyl-thiazol-2-yl)-amide], the inhibition at 12.5 µM under setting [1] worked out at 16%. Moreover, under setting [2], the inhibition at 25 µM was 19%.

In turn, `CCOC(=O)/C=C/C(=O)Nc1nc(-c2ccncc2)cs1` [IHSF 056, (E)-3-(4-Pyridin-4-yl-thiazol-2-lcarbamoyl)-acrylic acid ethyl ester] registered an IC50 (Z74 cells) of 19.8 µM. Moreover, the inhibition at 12.5 µM under setting [1] came out at 35%. For the same molecule, the inhibition at 25 µM under setting [2] worked out at 61%.
